{
  "source": "patent US20200197409A1",
  "about": "“HEPATITIS B VIRUS SURFACE ANTIGEN INHIBITOR” (FUJIAN COSUNTER PHARMACEUTICAL CO., LTD., priority 2017, published 2020)",
  "key": {"HBV-DNA": {"tested_on": "HBV-DNA", "test": "HBV DNA content in HepG2.2.15 cells culture supernatant by real time-qPCR", "format": "cell-based", "details": "supernatant on the 8th day", "description": "(§1) 2.1 Cell Line: HepG2.2.15 Cells\n3.6 15 μL of the reaction mixture was added into each well of a 96-well PCR plate, followed by addition of 10 μL of sample DNA or HBV DNA standards into each well.\n3.7 PCR reaction conditions: heating at 95° C. for 10 minutes, then denaturation at 95° C. for 15 seconds, extension at 60° C. for 1 minute, a total of 40 cycles."}, "[1]": {"test": "14-day pre-toxicology tolerance test on rat", "format": "in vivo", "details": "once a day for 14 days, male rats", "description": "[table] A total of 21 animals in this experiment were randomly divided into 7 groups. The animals were orally administered with the test compounds once a day for 14 consecutive days, and the toxicity was evaluated. Animal necropsy and tissue would be taken from the fixative, repaired, dehydrated, embedded, sectioned, stained and microscopically examined. These tissues included the liver, heart and lung of all animals, and spleen, stomach, duodenum, jejunum, ileum, and kidney of partial animals."}, "HBsAg": {"tested_on": "HBsAg", "details": "read-out: HBsAg EC50; HepG2.2.15 cells, supernatant on the 8th day", "description": "The HBV DNA content in HepG2.2.15 cells culture supernatant was determined by real-time quantitative qPCR assay (real time-qPCR), and the HBV surface antigen content was determined by enzyme linked immunosorbent assay (ELISA). The inhibitory effect of the compound on HBV was evaluated by the EC50 value of the compound.\nas §1\n3.1 HepG2.2.15 cells (4×10^4 cells/well) were seeded into a 96-well plate and incubated overnight at 37° C. under 5% CO2.\n3.2 On the 2nd day, the compound was diluted into 8 concentrations with 3-fold gradient. The compounds with different concentrations were added into the culture wells in duplicate wells. The final concentration of DMSO in the culture medium was 0.5%, 10 μM ETV was used as a 100%/inhibition control, and 0.5% DMSO was used as a 0% inhibition control.\n3.3 On the 5th day, the culture medium was replaced with a fresh medium containing the compound.\n3.4 On the 8th day, the culture medium in the culture well was collected, and a part of the sample was taken for ELISA to determine the content of hepatitis B virus S antigen, a part of the sample was taken to extract DNA with a high-throughput DNA purification kit (Qiagen-51162).\n3.8 Determination of hepatitis B virus S antigen content by ELISA\n50 μL of sample and standard sample were taken and added into a reaction plate respectively, followed by addition of 50 μL of enzyme conjugate into each well, the mixture was shaken and well-mixed, and placed in a bath at 37° C. for 60 minutes. The plate was then washed with washing solution 5 times, followed by addition of 50 μL of illuminating substrate into each well, the mixture was well-mixed and allowed to react at room temperature for 10 minutes in the dark. Chemiluminescence intensity was determined by a ELISA.\nCalculation of the percentage of inhibition:% Inh.=(1−value of sample/value of DMSO control)×100\nCalculation of EC50: The 50% inhibitory concentration (EC50) value of the compound on HBV was calculated by GraphPad Prism software."}, "[2]": {"test": "Microsomal metabolism stability, mouse", "format": "in vitro ADME", "details": "mouse liver microsomes 0.5 mg/mL, 1 μM, NADPH, 37° C.", "description": "(§2) The microsomal metabolism stability of the test compound (Embodiment 6) in three species was determined. 1 μM test compound and microsomes (0.5 mg/mL) supplemented with NADPH regeneration system were incubated at 37° C. The positive controls were testosterone (3A4 substrate), propafenone (2D6 substrate) and diclofenac (2C9 substrate), respectively. The positive control and microsomes (0.5 mg/mL) supplemented with NADPH regeneration system were incubated at 37° C. Samples at different time points (0, 5, 10, 20, 30, and 60 minutes) were mixed directly with cold acetonitrile containing an internal standard to terminate the reaction. The compound and microsomes were incubated for 60 minutes without the NADPH regeneration system. One parallel was set at each time point (n=1). The samples were analyzed by LC/MS/MS. The concentration of the compound was indicated by the ratio of the peak area of the analyte to the peak area of the internal standard."}, "CYP2C19": {"target": "T1, CYP2C19 (Homo sapiens, UniProt P33261)", "T1 construct": "from tissue; host or cells: human liver microsomes", "T1 sequence (P33261 whole entry)": "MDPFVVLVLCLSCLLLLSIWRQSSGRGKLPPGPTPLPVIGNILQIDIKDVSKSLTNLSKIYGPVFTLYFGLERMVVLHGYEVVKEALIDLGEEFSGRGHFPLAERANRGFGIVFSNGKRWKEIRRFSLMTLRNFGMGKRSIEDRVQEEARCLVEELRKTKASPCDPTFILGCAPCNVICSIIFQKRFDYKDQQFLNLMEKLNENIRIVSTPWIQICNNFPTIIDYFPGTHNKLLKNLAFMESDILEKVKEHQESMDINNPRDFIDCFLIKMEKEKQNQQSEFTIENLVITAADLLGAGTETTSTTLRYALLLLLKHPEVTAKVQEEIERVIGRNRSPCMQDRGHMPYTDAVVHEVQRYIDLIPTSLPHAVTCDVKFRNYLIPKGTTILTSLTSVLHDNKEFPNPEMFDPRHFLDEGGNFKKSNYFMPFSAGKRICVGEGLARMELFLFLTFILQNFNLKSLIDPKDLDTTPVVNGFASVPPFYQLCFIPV", "test": "Inhibition of cytochrome P450 isoenzyme in human liver microsomes", "format": "in vitro ADME", "description": "(§3) The inhibitory effect of the test compound on different subtypes of human cytochrome P450 isoenzyme was determined. Working solutions of the test compound, standard inhibitor (100×final concentration) and a mixed substrate were prepared. Microsomes frozen in a −80° C. refrigerator were thawed. 2 μL of test compound and the standard inhibitor solution were added into the corresponding wells, while 2 μL of the corresponding solvent was added into the non-inhibitor control well (NIC) and the blank control well (Blank). 20 μL of the mixed substrate solution was added into the corresponding wells except for the Blank well (20 μL of PB was added into the Blank well). Human liver microsomes solution was prepared (it was put back to the refrigerator immediately after use and the date was marked) and 158 μL of human liver microsomes solution were added into all of the wells immediately. The sample plate was pre-incubated under a 37° C. water bath, during which coenzyme factor (NADPH) solution was prepared immediately. After 10 minutes, 20 μL of coenzyme factor (NADPH) solution was added into all of the wells. After the sample plate was shaken evenly, it was incubated under a 37° C. water bath for 10 minutes. 400 μL of cold acetonitrile solution (the internal standard was 200 ng/mL Tolbutamide and Labetalol) was added to terminate the reaction at the corresponding time. After the sample plate was well-mixed, it was centrifuged at 4,000 rpm for 20 minutes to precipitate the protein. 200 μL of the supernatant was collected and added to 100 μL of water, and subjected to LC/MS/MS measurement after being shaken evenly."}, "CYP3A4-M": {"target": "T2, CYP3A4-M (Homo sapiens, UniProt P08684)", "T2 construct": "from tissue; host or cells: human liver microsomes", "T2 sequence (P08684 whole entry)": "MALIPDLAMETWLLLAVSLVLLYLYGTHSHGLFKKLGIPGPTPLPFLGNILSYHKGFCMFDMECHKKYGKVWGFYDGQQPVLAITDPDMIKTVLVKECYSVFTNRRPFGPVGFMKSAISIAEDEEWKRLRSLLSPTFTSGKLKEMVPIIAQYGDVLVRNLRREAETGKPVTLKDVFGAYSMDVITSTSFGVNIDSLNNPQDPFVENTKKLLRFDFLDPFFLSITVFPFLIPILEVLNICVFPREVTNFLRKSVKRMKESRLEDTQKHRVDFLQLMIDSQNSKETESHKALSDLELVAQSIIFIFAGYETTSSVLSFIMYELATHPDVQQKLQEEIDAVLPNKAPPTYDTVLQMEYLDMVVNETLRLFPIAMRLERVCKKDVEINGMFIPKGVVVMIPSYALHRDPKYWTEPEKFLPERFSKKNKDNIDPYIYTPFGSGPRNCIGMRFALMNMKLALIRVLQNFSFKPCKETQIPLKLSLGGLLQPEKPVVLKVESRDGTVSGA", "test": "Inhibition of cytochrome P450 isoenzyme in human liver microsomes", "format": "in vitro ADME", "description": "as §3"}, "[3]": {"test": "Microsomal metabolism stability, rat", "format": "in vitro ADME", "details": "rat liver microsomes 0.5 mg/mL, 1 μM, NADPH, 37° C.", "description": "as §2"}},
  "data": [
    {"smiles": "COCCCOc1cc2c(cc1OC)-c1cc(=O)c(C(=O)O)cn1[C@H](C(C)(C)C)CO2", "note": "[Embodiment 6]", "values": [
      {"measurement": "EC50", "setting": "HBV-DNA", "result": 2.55, "unit": "nM"},
      {"measurement": "histopathological changes associated with the test compound", "setting": "[1]; high dose group (1000 mg/kg)", "result": "little or mild decrease of white pulp lymphocytes in the spleen"},
      {"measurement": "histopathological changes associated with the test compound", "setting": "[1]; medium and low dose groups (300 and 100 mg/kg), heart, liver and lung examined", "result": "no histopathological changes associated with the test compound were observed"},
      {"measurement": "EC50", "setting": "HBsAg", "result": 3.88, "unit": "nM"},
      {"measurement": "remaining ratio at T=60 min", "setting": "[2]", "result": 102.5, "unit": "%"},
      {"measurement": "IC50", "setting": "CYP2C19", "result": "> 50000", "unit": "nM"},
      {"measurement": "IC50", "setting": "CYP3A4-M", "result": "> 50000", "unit": "nM"},
      {"measurement": "remaining ratio at T=60 min", "setting": "[3]", "result": 113.0, "unit": "%"}
    ]}
  ]
}
